Results published in patent US12297457B2, “Esophageal tissue and/or organoid compositions and methods of making same” (Children's Hospital Medical Center, priority 2017, dated 2025).
Entries after “also recorded” stand apart in the source; their conditions may differ.

Assays:
Assay type in all cases: cell-based, human
CDX2-induced HEOs = assay: Notch inhibition in CDX2-induced HEOs (qPCR, IF); conditions: d58 HEOs
Procedure: Human embryonic stem cell (hESC) line H1 (WA01, person) were purchased from WiCell. iPSC line iPS106 was generated in-house and approved by the institutional review board at CCHMC. All hPSCs were maintained on feeder-free cultures: cells were plated on hESC-qualified Matrigel (BD Biosciences, San Jose, Calif.) and maintained at 37° C. with 5% CO2 with daily replacement of mTeSR1 media (STEMCELL Technologies, Vancouver, Canada); cells were passaged routinely every 4 days using Dispase (STEMCELL Technologies). The HA-tagged SOX2, CDX2, or FANCA dox-inducible lines were generated by first cloning the human SOX2 ORF, CDX2 ORF, or FANCA ORF into pINDUCER20 (respectively) (Addgene #44012, Meerbrey et al., 2011). Next, lentivirus was generated with help of the Viral Vector Core Facility at CCHMC. The lentivirus for HA-SOX2 and CDX2 were transduced into hESCs with 2 μL of virus; these lines were maintained on selection with mTeSR1 and G418 (500 μg mL-1, ThermoFisher Scientific). The lentivirus for FANCA were transduced prior to the iPS106 line generation, as FANCA is required for maintenance of hPSC properties. The hESC H1 line (and transduced derivatives) was used in all experiments excluding Fanconi Anemia modeling in HEOs, which used the iPS106 line.
(§1) For the generation of anterior foregut spheroids, from definitive endoderm, cells were treated with Wnt3a (500 ng mL-1, R&D systems) for 2 days, and FGF4 (500 ng mL-1, R&D systems), Noggin (200 ng mL-1) for 3 days in RPMI 1640 with 2% dFBS. Three-dimensional culture and differentiation of anterior foregut spheroids into human esophageal organoids were obtained as described above.
Tissue cultures were fixed with 4% paraformaldehyde at either room temperature for 15 minutes (for monolayer cultures), or 4° C. for overnight (for organoids). […]
Monolayer cultures and organoids were harvested in total, including the plated/embedding matrigel. […] For qRT-PCR, Applicant used Quantitect SYBR-Green master mix (Qiagen) and ran the reaction on a QuantStudio 6 machine (ThermoFisher Scientific).

foregut spheroids = assay: Anterior-posterior patterning of foregut spheroids (qPCR, IF); conditions: for regional identity of foregut spheroids (HNF1β, SOX2, PROX1, HNF6): shorter duration of treatment following DE formation, day 6 spheroids
Procedure: Confluent hPSC cultures were treated with Acutase (STEMCELL Technologies) to resuspend as single cells in mTeSR1 and Y-27632 (10 μM, Tocris) and plated on Matrigel. On the following day, differentiation into definitive endoderm was carried out as previously described (McCracken et al., 2014). Briefly, cells were treated with Activin A (100 ng mL-1, R&D systems, Minneapolis, Minn.) and BMP4 (50 ng mL-1, R&D systems) on the first day in RPMI 1640 media (Life Technologies). Cells in the following two days were treated with only Activin A (100 ng mL-1) in RPMI 1640 with increasing concentrations 0.2% and 2% of HyClone defined fetal bovine serum (dFBS, GE Healthcare Life Sciences).
For anterior foregut monolayer cultures, cells were treated for 3 days in Noggin (200 ng mL-1) in RPMI 1640 with 2% dFBS, with all-trans retinoic acid (2 μM, Sigma, St. Louis, Mo.) the 3rd day.
(§2) Alternately, for the generation of anterior foregut spheroids, from definitive endoderm, cells were treated with FGF4 (500 ng mL-1, R&D systems), Noggin (200 ng mL-1) for 3 days in RPMI 1640 with 2% dFBS. Additional factors were tested during this time (described in results), such as CHIR99021 (“chiron” or “chr”, 2 μM, Tocris), Wnt3a (500 ng mL-1, R&D systems), SB431542 (10 μM, Tocris), DEAB (10 μM, Sigma), and retinoic acid (2 μM).
Tissue cultures were fixed with 4% paraformaldehyde at either room temperature for 15 minutes, 4° C. for 2 hours for cryosectioning, or 4° C. overnight for paraffin embedding/sectioning and mouse embryos. For paraffin embedding and sectioning, following fixation, tissues were dehydrated and embedded into paraffin blocks. Afterwards, paraffin-sectioned slides were deparaffinized and subjected to antigen retrieval in 10 mM sodium citrate for 30 minutes prior to staining. For cryosectioning, tissues were thoroughly washed in PBS, left in 30% sucrose overnight, embedded in OCT compound (VWR), and sectioned at a thickness of 8 μm. Commonly, slides were then permeabilized with 0.5% TritonX-100 in PBS for 10 minutes, blocked in 5% normal donkey serum (Jackson ImmunoResearch) for 1 hour, and incubated in primary antibody overnight at 4° C. On the next day, slides were thoroughly washed in PBS, incubated in secondary antibody (at 1:500) for 1 hour, and then thoroughly washed again. For EdU visualization, Applicant used the Click-iT EdU Alexa Fluor 488 Imaging Kit (Invitrogen) prior to blocking. For wholemount immunofluorescence staining, embryos were placed in 100% methanol immediately after fixation. Embryos were then permeabilized with Dent's Bleach (4:1:1 MeOH:DMSO:30% H2O2) for 2 hours at room temperature, rehydrated with methanol washes, and blocked for several hours at room temperature to overnight at 4° C. Primary antibodies were applied and embryos incubated overnight at 4° C. Then, embryos were thoroughly washed in 0.1% TritonX-100 in PBS before incubating in secondary antibodies overnight at 4° C. Finally, embryos were washed again, dehydrated with methanol washes, and cleared with Murray's Clear (2:1 benzyl benzoate:benzyl alcohol, Sigma) at least 15 minutes prior to imaging. For a list of antibodies and dilutions used, please see Table 2.
Spheroid and organoids were harvested in total, including the embedding matrigel. Collagen plugs from the organotypic raft cultures were first removed from the transwell on day 14, and subsequently harvested in total. Total RNA was isolated using the NucleoSpin RNA kit (Macherey-Nagel) and reverse transcribed to cDNA using the SuperScript VILO cDNA synthesis kit (ThermoFisher Scientific). For qRT-PCR, Applicant used Quantitect SYBR-Green master mix (Qiagen) and ran the reaction on a QuantStudio 6 machine (ThermoFisher Scientific). For a list of primers used, please see Table 1.

HEOs [1] = assay: IL-13 treatment of HEOs, eosinophilic esophagitis model (qPCR, Western blot, IF, EdU, H&E, electron microscopy)
Procedure: (§3) Anterior foregut spheroids were transferred into 50 μL droplets of Matrigel, and are cultured for 3-58 days in the base (“Gut”) media of Advanced DMEM/F12 (ThermoFisher Scientific) supplemented with B27 supplement (1×, ThermoFisher Scientific), N2 supplement (1×, ThermoFisher Scientific), HEPES (13 mM, ThermoFisher Scientific), L-Glutamine (2 mM ThermoFisher Scientific), penicillin/streptomycin (1×, ThermoFisher Scientific), and EGF (100 ng mL^−1, R&D systems). In addition to this base media, the first three days were supplemented with Noggin (200 ng mL^−1), FGF10 (50 ng mL^−1), and CultureOne supplement (1×, ThermoFisher Scientific). FGF10 and CultureOne supplementation is continued until the end of the first week in three-dimensional culture. Media was replaced every 3-4 days. For EdU labeling, media was supplemented with EdU (10 μM Invitrogen) for a defined period of time, and was removed by washing with sterile PBS twice before replacing with media without EdU.
as §1
(§4) Tissue cultures were fixed with 4% paraformaldehyde at either room temperature for 15 minutes (for monolayer cultures), or 4° C. for overnight (for organoids). Tissues were thoroughly washed in PBS and stained for monolayer cultures, while organoids were thoroughly washed and then left in 30% sucrose overnight, embedded in OCT compound (VWR), and sectioned at a thickness of 8 μm. Slides were then permeabilized with 0.5% TritonX-100 in PBS for 10 minutes, blocked in 5% normal donkey serum (Jackson ImmunoResearch) for 1 hour minimum, and incubated in primary antibody overnight at 4° C. On the next day, slides were thoroughly washed in PBS, incubated in secondary antibody (at 1:500) for 1 hour, and then thoroughly washed again. For EdU visualization, the Click-iT EdU Alexa Fluor 488 Imaging Kit (Invitrogen) was used prior to blocking.
(§5) Monolayer cultures and organoids were harvested in total, including the plated/embedding matrigel. Total RNA was isolated using the NucleoSpin RNA kit (Macherey-Nagel) and reverse transcribed to cDNA using the SuperScript VILO cDNA synthesis kit (ThermoFisher Scientific). For qRT-PCR, Applicant used Quantitect SYBR-Green master mix (Qiagen) and ran the reaction on a QuantStudio 6 machine (ThermoFisher Scientific).

HEOs [2] = assay: BMP activation in late stage HEOs (IF, EdU, qPCR)
Procedure: as §3, §1, §4, §5

AFG spheroids = assay: Dorsal-ventral patterning / respiratory induction of anterior foregut spheroids (qPCR, IF); conditions: day 6 AFG spheroids treated 3 days; analysed day 9
Procedure: as §2
Anterior foregut spheroids were transferred into 50 μL droplets of Matrigel, and are cultured for 3-58 days in the base (“Gut”) media of Advanced DMEM/F12 (ThermoFisher Scientific) supplemented with B27 supplement (1×, ThermoFisher Scientific), N2 supplement (1×, ThermoFisher Scientific), HEPES (13 mM, ThermoFisher Scientific), L-Glutamine (2 mM ThermoFisher Scientific), penicillin/streptomycin (1×, ThermoFisher Scientific), and EGF (100 ng mL^−1, R&D systems). In addition to this base media, the first three days were supplemented with Noggin (200 ng mL^−1), FGF10 (50 ng mL^−1), and CultureOne supplement (1×, ThermoFisher Scientific). […]
Spheroid and organoids were harvested in total, including the embedding matrigel. […] For qRT-PCR, Applicant used Quantitect SYBR-Green master mix (Qiagen) and ran the reaction on a QuantStudio 6 machine (ThermoFisher Scientific). […]

[3] = 6-week-old HEOs, BMP4 100 ng/mL for additional 2 weeks

Molecule: C[C@H](NC(=O)Cc1cc(F)cc(F)c1)C(=O)N[C@H](C(=O)OC(C)(C)C)c1ccccc1 [DAPT]
- KRT5 expression (CDX2-induced HEOs; CDX2-induction plus DAPT): further downregulated
- KRT13 expression, effect added to CDX2-induction (CDX2-induced HEOs; CDX2-induction plus DAPT): does not appear to be a synergistic effect
- HESS (Notch target gene) expression (CDX2-induced HEOs; qPCR): downregulated

Molecule: CCN(CC)c1ccc(C=O)cc1 [DEAB]
- TP63 and pharyngeal marker expression of spheroids (foregut spheroids; cultures containing DEAB (blocking RA synthesis)): spheroids with minimal TP63 expression and increased levels of the pharyngeal markers PAX9 and OTX2

Molecule: CC1=C(/C=C/C(C)=C/C=C/C(C)=C/C(=O)O)C(C)(C)CCC1 [RA, all-trans retinoic acid]
- marker expression after RA treatment (foregut spheroids; 1 day of RA): promotes expression of TP63 and KRT4 and not posterior foregut markers GATA4 and PDX1; also recorded: spheroids that express TP63
- marker expression after RA treatment (foregut spheroids; RA for 4 days): express posterior foregut markers, GATA4 and PDX1

Molecule: Cc1c[nH]c(-c2cnc(NCCNc3ccc(C#N)cn3)nc2-c2ccc(Cl)cc2Cl)n1 [chiron, CHIR99021]
- gene expression profile of spheroids, chiron versus Wnt3a (foregut spheroids; one day of chiron treatment, qPCR): same gene expression profile as those generated with 2 days of Wnt3a
- regional identity of foregut spheroids (HNF1β, SOX2, PROX1, HNF6) (foregut spheroids): formation of anterior foregut (AFG) spheroids expressing HNF1β and SOX2, with low levels of posterior foregut markers PROX1 and HNF6

Molecule: IL-13: a cytokine known to enact broad changes in the esophagus
- epithelial morphology by electron microscopy (HEOs [1]; IL-13 100 ng/mL for 2 weeks): increased spaces between individual cells and a decrease in cell-cell contacts
- EdU incorporation in the basal-most p63+ cells (HEOs [1]; IL-13 100 ng/mL for 2 weeks, EdU 2 days): increased
- BMP antagonists NOG and FST expression (HEOs [1]; IL-13 100 ng/mL for 2 weeks, qPCR): did not upregulate
- epithelial morphology (HEOs [1]; IL-13 100 ng/mL for 2 weeks, IF, H&E): dilated intercellular spaces suprabasally
- late differentiation and structural proteins (HEOs [1]; IL-13 100 ng/mL, 1-2 weeks): downregulated late differentiation and structural proteins DSG1, IVL, and CRNN
- PTCH1 expression (read-out for hedgehog signaling) (HEOs [1]; IL-13 alone): upregulates
- BMP target gene ID3 expression (HEOs [1]; day 62 HEOs, qPCR): mild increase
- IL-13 target gene response (HEOs [1]; extended treatment (100 ng/mL, 1 week), Western blot): maintained upregulation of some target genes SERPINB13 and CDH26
- IL-13 target gene response (HEOs [1]; short duration (2 days prior to harvest), day 62 HEOs, qPCR): validated the response of target genes CCL26, CDH26, CAPN14, and SERPINB4

B1: BMP4: recombinant human BMP4 (protein, UniProt P12644 293-408, looked up)
Bone morphogenetic protein 4: SPKHHSQRARKKNKNCRRHSLYVDFSDVGWNDWIVAPPGYQAFYCHGDCPFPLADHLNSTNHAIVQTLVNSVNSSIPKACCVPTELSAISMLYLDEYDKVVLKNYQEMVVEGCGCR
- state of remaining basal cells (pSMAD1/5/9, p63, SOX2) (HEOs [2]; [3]): have active BMP signaling (pSMAD1/5/9+) and express p63, but loss expression of SOX2
- stratification and differentiation markers (HEOs [2]; [3]): loss of stratification and expression of differentiation markers
- EdU incorporation (HEOs [2]; BMP4 treated HEOs, day 62): minimal EdU incorporation
- CDX2 expression (HEOs [2]; BMP4 treated HEOs, data not shown): unchanged

B2: Wnt3a: recombinant human Wnt3a, Wnt ligand (protein, UniProt P56704 19-352, looked up)
Protein Wnt-3a: SYPIWWSLAVGPQYSSLGSQPILCASIPGLVPKQLRFCRNYVEIMPSVAEGIKIGIQECQHQFRGRRWNCTTVHDSLAIFGPVLDKATRESAFVHAIASAGVAFAVTRSCAEGTAAICGCSSRHQGSPGKGWKWGGCSEDIEFGGMVSREFADARENRPDARSAMNRHNNEAGRQAIASHMHLKCKCHGLSGSCEVKTCWWSQPDFRAIGDFLKDKYDSASEMVVEKHRESRGWVETLRPRYTYFKVPTERDLVYYEASPNFCEPNPETGSFGTRDRTCNVSSHGIDGCDLLCCGRGHNARAERRREKCRCVFHWCCYVSCQECTRVYDVHTCK
- regional identity of foregut spheroids (HNF1β, SOX2, PROX1, HNF6) (foregut spheroids): formation of anterior foregut (AFG) spheroids expressing HNF1β and SOX2, with low levels of posterior foregut markers PROX1 and HNF6

B3: Noggin: recombinant human Noggin, used to inhibit BMP signaling (protein, UniProt Q13253 28-232, looked up)
Noggin: QHYLHIRPAPSDNLPLVDLIEHPDPIFDPKEKDLNETLLRSLLGGHYDPGFMATSPPEDRPGGGGGAAGGAEDLAELDQLLRQRPSGAMPSEIKGLEFSEGLAQGKKQRLSKKLRRKLQMWLWSQTFCPVLYAWNDLGSRFWPRYVKVGSCFSKRSCSVPEGMVCKPSKSVHLTVLRWRCQRRGGQRCGWIPIQYPIISECKCSC
- dorsal-ventral marker expression (NKX2-1, SOX2, MNX1, KRT4, TP63) (AFG spheroids): dorsalized spheroids, as marked by elevated levels of SOX2, MNX1, KRT4, and TP63
